Experimental data taken from patent EP4400100A1, “ANT[…] USE IN THE TREATMENT OF CANCER” (Instituto de Investigación Biomédica de Salamanca De la …, priority 2023, dated 2024).

What was measured:
Format in all cases: cell-based
[1] = system: androgen-treated cancer cell lines (AR+ and AR-); assay: Cell growth after 7 days of treatment with dihydrotestosterone, enzalutamide and their combination; details: for cell growth on androgen stimulation: DHT 10 nM
Protocol: (§1) • Figure 1. […] Study of cell proliferation by MTT assay in AR+ MCF7, BT474, BT549 and HS 578T lines and in AR-HCC1937, HCC1569 and MDA-MB-231 lines at 24, 48 and 72 hours after enzalutamide treatment. Error bars are not shown when smaller than the symbol size. IC50 (best fit and 95% confidence interval) shown below. • Figure 2. […] Cell viability study by Annexin V/propidium iodide labelling in AR+ MCF7, BT474, BT549 and HS 578T lines and in AR- HCC1937, HCC1569 and MDA-MB-231 lines after 72 hours of enzalutamide treatment. Error bars represent SD. Significance between C- and different conditions shown without brackets (^∗p < 0.05, ^∗∗p < 0.01, ★p<0.001). • Figure 3. A) Effect of […] dihydrotestosterone, 10 µM enzalutamide and their combination on the indicated cell lines after 7 days of treatment. Data are the average of three independent experiments. Error bars represent SD. Statistically significant differences between C- and different conditions are shown without brackets (*p < 0.05, **p < 0.01, *p<0.001). […] Study of cell proliferation by MTT assay in the AR+ LN18 line and in the AR- SKOV-3 and CAL33 lines at 24, 48 and 72 hours after treatment with enzalutamide.
To assess whether the effect of enzalutamide is androgen-independent, we tested the effect of enzalutamide on androgen-treated cancer cell lines. We studied the effects of dihydrotestosterone (DHT) (10 nM), enzalutamide (10 µM) and their combination on the different lines (Figure 3A).

[2] = system: AR+ MCF7, BT474, BT549 and HS 578T lines and AR- HCC1937, HCC1569 and MDA-MB-231 lines; assay: Cell proliferation by MTT assay in breast cancer cell lines
Protocol: as §1

[3] = system: AR+ MCF7, BT474, BT549 and HS 578T lines and AR- HCC1937, HCC1569 and MDA-MB-231 lines; assay: Apoptosis / cell viability by Annexin V/propidium iodide labelling and flow cytometry in breast cancer cell lines; details: varying concentrations, 72 hours, independent of receptor status
Protocol: as §1

[4] = system: AR+ LN18 line and AR- SKOV-3 and CAL33 lines; assay: Cell proliferation by MTT assay in ovarian, glioblastoma and head and neck cancer cell lines; details: SKOV-3 (AR-), 24, 48 and 72 hours, preliminary results
Protocol: as §1

SMILES	cell growth on androgen stimulation ([1]; BT474 (AR+) and AR- lines)	cell growth on androgen stimulation ([1]; HS 578 T, followed by BT549 and MCF7 (AR+))	inhibition of proliferation ([1]; enzalutamide 10 µM alone)	inhibition of cell proliferation ([1]; enzalutamide 10 µM combined with DHT 10 nM, AR+ and AR- cells)	cell growth inhibition, ranking of cell lines ([2]; MDA-MB-231 (AR-) line, 24, 48 or 72 hours, followed by HCC1569 (AR-), BT474 (AR+) and BT549 (AR+))	cell proliferation ([2]; all breast cancer cell lines tested (AR+ and AR-), 24, 48 and 72 hours of treatment, higher efficacy at 72 hours)	apoptosis [3]	proliferation [4]
C[C@]12CCC(=O)C[C@@H]1CC[C@@H]1[C@@H]2CC[C@]2(C)[C@@H](O)CC[C@@H]12 [dihydrotestosterone]	No significant differences	highest increase in cell growth						
CNC(=O)c1ccc(N2C(=S)N(c3ccc(C#N)c(C(F)(F)F)c3)C(=O)C2(C)C)cc1F [enzalutamide]			induced a higher inhibition of proliferation than that observed at 72 hours	the inhibition of cell proliferation was less than that of enzalutamide alone	the most affected	inhibited cell proliferation in a dose- and time-dependent manner in all cell lines tested	induced apoptosis in a dose-dependent manner	induces an inhibitory effect on proliferation regardless of the androgen receptor status of the tumours
